Series [1] in a line: Octanol/water partition coefficient, logP of the compound. Format: physicochemical.
The nature of series [2]: Kinetic solubility of compound in 1-Octanol/PBS at pH 7.4 at 200 uM incubated for 2 hrs by shake flask method. Format: physicochemical. The following applies: read-out: Kinetic_solubility.
The subject of series [3] is Plasmodium falciparum. As to the kind of experiment: Antimalarial activity against Plasmodium falciparum NF54 assessed as parasite growth inhibition at 2 uM relative to control. The following applies: read-out: GI. Format: functional.
In series [4] the test system is Plasmodium falciparum. As to the kind of experiment: Antimalarial activity against Plasmodium falciparum 3D7 assessed as reduction in parasite growth. Format: functional, organism-based.

The values that follow come from ChEMBL document CHEMBL5390311, “MAIP: An Open-Source Tool to Enrich High-Throughput Screening Output and Identify Novel, Druglike Molecules with Antimalarial Activity” (ACS Med Chem Lett, 2023).

≈ marks a conversion by molar mass, not a printed value.

Consider `CN1CCC(Oc2ccc(NC(=O)c3cn4ccnc4s3)cn2)CC1`, for which the logP (as a rule, a log measure of how a compound divides between an organic and an aqueous phase) in series [1] (read-out: logP) was found to be 2. For the same compound, the solubility kinetic at 2 h, 200 µM in series [2] turned out to be 200 µM (≈ 71.5 µg/mL).

`Cc1cnccc1N1CCCN(Cc2ccccc2OCCN2CCN(C)CC2)CC1`: in series [1] (read-out: logP), the log partition coefficient (logP) is 3.

On to `COc1ccc(-c2cncc(C(=O)NCC3CCN(CCN(C)C)CC3)c2)cc1`, for which the logP in series [1] (read-out: logP) is 2.8.

Turning to `c1ccc(-c2ccnc(C3CCN(CC45CNCC4C5)CC3)n2)cc1` (stereo unspecified), the logP in series [1] (read-out: logP) was 3.2. Besides, in series [2], the solubility kinetic at 2 h, 200 µM worked out at 200 µM (≈ 66.9 µg/mL).

Consider `COc1ccc(CN2CCN(c3ccncc3C)CC2)cc1Cn1cccn1`, for which the inhibition of growth at 2 µM with Plasmodium falciparum [3] is -15%.

`CC1(N2CCC2)CCC(NCC2CCN(Cc3ccccc3)C2)CC1` (stereo unspecified): the logP in series [1] (read-out: logP) stood at 3.4.

Consider `O=C(NC1CCN(CCOc2ccc(Cl)cc2)CC1)c1c[nH]c2ccncc2c1=O`, for which the logP in series [1] was 2.5.

In the case of `CN1CCN(CCCCNC2CC3CCC(C2)N3Cc2ccccc2)CC1` (stereo unspecified), the logP in series [1] (read-out: logP) was determined as 3.1. For the same compound, in series [2], the solubility kinetic at 2 h, 200 µM is 200 µM (≈ 74.1 µg/mL).

Consider `OC1(CCCNC2CCN(C3CC3)C(c3ccccc3)C2)CCC1` (stereo unspecified), for which, in the series on Plasmodium falciparum [3], the inhibition of growth at 2 µM is -8%.

Take `CC1CCN(Cc2cccc(C(=O)NCc3ccc(F)c(-c4ccc(CN5CCN[C@H](C)C5)cc4)c3)c2)CC1`: the XC50 with Plasmodium falciparum [4] is 1460 nM.

Take `COc1c(C2CCN(CCN3CCC(CNC(=O)c4ccc(-c5ccc(C#N)cc5)cc4)CC3)CC2)ccc2c1CCCC2`: the XC50 in the series on Plasmodium falciparum [4] was 445 nM.

For `Oc1cc(CN2CCC(O)(Cn3ccnc3)CC2)nc2c(Cl)cccc12`, the XC50 in the series with Plasmodium falciparum [4] was determined as 882 nM.

Take `Cc1c(CN2CCC(O)(Cn3ccnc3)CC2)[nH]c2c(Cl)cccc12`: in series [1] (read-out: logP), the logP was found to be 3.6.
